Data from patent US11014904B2, “1,2,4-triazine-3-amine derivative, preparation method therefor, and use thereof in medicine” (Jiangsu Hengrui Medicine Co., Ltd., priority 2017, dated 2021).

Target: T1, adenosine A2a receptor (A2aR) (Homo sapiens, UniProt P29274)
T1 construct: expressed in transfected cells; host or cells: CHO-K1
Assay: Inhibition of the adenosine A2a receptor cAMP signaling pathway in CHO-K1/A2aR cells (HTRF)
Format: cell-based
Conditions: CHO-K1/A2aR cells, cAMP, NECA 20 nM; Table 1
Excerpt: Determination of the inhibition activity of the compounds of the present invention on the adenosine A2a receptor (A2aR) cAMP signaling pathway, the adenosine A2b receptor (A2bR) cAMP signaling pathway, the adenosine A1 receptor (A1R) cAMP signaling pathway and the adenosine A3 receptor (A3R) cAMP signaling pathway.
The inhibition activity of the compounds of the present invention on the adenosine A2a receptor (A2aR) cAMP signaling pathway, the adenosine A2b receptor cAMP signaling pathway, the adenosine A1 receptor cAMP signaling pathway and the adenosine A3 receptor cAMP signaling pathway was determined by the following method. The experimental method is briefly described as follows:
2.1 Adenosine A2a receptor
CHO-K1/A2aR cells were cultured in DMEM/F12 medium containing 10% fetal bovine serum and 800 μg/ml bleomycin. The cells were digested with the cell separation buffer during the experiment. The cells were resuspended in the balanced salt buffer containing 20 mM HEPES and 0.1% bovine serum albumin and counted, and the cell density was adjusted to 10^6 cells/ml. In the 384-well plate, each well was added with 5 μl of cell suspension, and 2.5 μl of test compound (4× concentration) formulated with the balanced salt buffer containing 20 mM HEPES, 0.1% bovine serum albumin, 54 μM rolipram and 2.7 U/ml adenosine deaminase, and the plate was incubated at room temperature for 30 minutes. Each well was then added with 2.5 μl of […] (4× concentration) formulated with the balanced salt buffer containing 20 mM HEPES, 0.1% bovine serum albumin, 54 μM rolipram and 2.7 U/ml adenosine deaminase, and the plate was incubated at room temperature for 30 minutes. The final concentrations of the compounds were: 10000, 2000, 400, 80, 16, 3.2, 0.64, 0.128, 0.0256, 0.00512, and 0.001024 nM. The final concentration of […] was 20 nM. Intracellular cAMP concentration was detected with the cAMP dynamic 2 kit. cAMP-d2 and Anti-cAMP-Eu-Cryptate were diluted respectively with the cAMP lysis buffer at a ratio of 1:4. Each well was added with 5 μl of diluted cAMP-d2, followed by addition of 5 μl of diluted Anti-cAMP-Eu-Cryptate, and the plate was incubated at room temperature in the dark for 1 hour. The HTRF signal values were read by the PHERAstar multi-function microplate reader.

T1 sequence (P29274 whole entry): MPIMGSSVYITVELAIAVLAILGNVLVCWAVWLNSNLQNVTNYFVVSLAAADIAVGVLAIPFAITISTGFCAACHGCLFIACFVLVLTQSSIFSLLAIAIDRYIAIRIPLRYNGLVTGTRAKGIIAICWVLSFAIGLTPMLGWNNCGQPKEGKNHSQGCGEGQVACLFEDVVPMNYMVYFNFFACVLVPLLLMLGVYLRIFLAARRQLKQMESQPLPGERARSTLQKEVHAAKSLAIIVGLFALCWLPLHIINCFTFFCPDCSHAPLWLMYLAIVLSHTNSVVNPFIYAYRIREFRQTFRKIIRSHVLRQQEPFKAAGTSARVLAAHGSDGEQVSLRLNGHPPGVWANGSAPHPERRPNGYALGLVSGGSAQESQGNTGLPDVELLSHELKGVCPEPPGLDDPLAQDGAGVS

Row | SMILES | IC50
1 | Nc1nnc(-c2ccc3nccc(C4CC4)c3c2)c(-c2ccc(F)cc2)n1 [Example 49, 6-(4-Cyclopropylquinolin-6-yl)-5-(4-fluorophenyl)-1,2,4-triazin-3-amine] | 2.5 nM
2 | Nc1nnc(-c2ccc3nccc(C(F)F)c3c2)c(-c2ccc(F)cc2)n1 [Example 51, 6-(4-(Difluoromethyl)quinolin-6-yl)-5-(4-fluorophenyl)-1,2,4-triazin-3-amine] | 3.5 nM
3 | Nc1nnc(-c2ccc3ncccc3c2)c(-c2ccc(F)cc2)n1 [Example 30, 5-(4-Fluorophenyl)-6-(quinolin-6-yl)-1,2,4-triazin-3-amine] | 3.7 nM
4 | Nc1nnc(-c2ccc3ncncc3c2)c(-c2ccccc2)n1 [Example 29, 5-Phenyl-6-(quinazolin-6-yl)-1,2,4-triazin-3-amine] | 3.5 nM
5 | CCc1ccnc2c(F)cc(-c3nnc(N)nc3-c3ccccc3)cc12 [Example 47, 6-(4-Ethyl-8-fluoroquinolin-6-yl)-5-phenyl-1,2,4-triazin-3-amine] | 1.6 nM
6 | Nc1nnc(-c2ccc3nccc(Cl)c3c2)c(-c2ccc(F)cc2)n1 [Example 27, 6-(4-Chloroquinolin-6-yl)-5-(4-fluorophenyl)-1,2,4-triazin-3-amine] | 2.2 nM
7 | Nc1nnc(-c2cc(F)c3ncccc3c2)c(-c2cccc(F)c2)n1 [Example 26, 5-(3-Fluorophenyl)-6-(8-fluoroquinolin-6-yl)-1,2,4-triazin-3-amine] | 1.8 nM
8 | Cc1cc(-c2nnc(N)nc2-c2ccco2)cc2cccnc12 [Example 6, 5-(Furan-2-yl)-6-(8-methylquinolin-6-yl)-1,2,4-triazin-3-amine] | 1.3 nM
9 | Nc1nnc(-c2ccc3ccccc3c2)c(-c2ccccc2)n1 [Example 13, 6-(Naphthalen-2-yl)-5-phenyl-1,2,4-triazin-3-amine, reference compound] | 158 nM
10 | Cc1cc(-c2nnc(N)nc2-c2cccs2)cc2cccnc12 [Example 7, 6-(8-Methylquinolin-6-yl)-5-(thiophen-2-yl)-1,2,4-triazin-3-amine] | 3.1 nM
11 | Nc1nnc(-c2ccc3ncc(F)cc3c2)c(-c2ccccc2)n1 [Example 24, 6-(3-Fluoroquinolin-6-yl)-5-phenyl-1,2,4-triazin-3-amine] | 0.9 nM
12 | Cc1cc(-c2nnc(N)nc2-c2ccc(F)cc2)cc2cccnc12 [Example 8, 5-(4-Fluorophenyl)-6-(8-methylquinolin-6-yl)-1,2,4-triazin-3-amine] | 3.6 nM
13 | Cc1cnc2ccc(-c3nnc(N)nc3-c3ccccc3)cc2c1 [Example 28, 6-(3-Methylquinolin-6-yl)-5-phenyl-1,2,4-triazin-3-amine] | 3 nM
